Data from patent US10351539B2, “Macrocyclic complexes, their process of preparation and use as PET imaging agents” (INSTITUT NATIONAL DE LA SANTE ET DE LA RECHERCHE MEDICALE …, priority 2014, dated 2019).

Assays:
[1] = Study 1: biodistribution of ^99mTc-NTP 15-5 in healthy rat; type: in vivo; conditions: 1 h p.i., 0.37 MBq, average from 3 animals ± SD
Experimental: Quantitative biodistribution of radiolabelled compounds was determined in rats: healthy animals as well as rats with primary grade II orthotopic chondrosarcoma at stage Day-30 after induction. The chondrosarcoma model was the Swarm Rat Chondrosarcoma model (SRC) implanted in paratibial location. […] One hour after injection, animals were then sacrificed by CO2 inhalation, dissected and organs of interest removed, weighed and their radioactivity counted using a gamma counter (Model 1480 Wizard, Perkin Elmer Life Sciences, Boston, USA). Organs collected were blood, muscle, knee, kidneys, liver, thoracic ribs, bladder for both healthy and chondrosarcoma bearing rats. For SRC animals, tumour was also sampled. After radioactive decay correction, results were expressed for each organ as % injected dose per gram (% ID/g) and averaged per group.
The following table discloses the biodistribution of ^99mTc-NTP 15-5 in healthy rat, carried out in similar conditions than those of the compounds of the invention (see section C above).

[2] = Study 2: biodistribution in healthy New Zealand rabbits (gamma counting of dissected organs); type: in vivo; conditions: i.v.
Experimental: Biodistribution were determined in 36 healthy New Zealand rabbits (18 males and 18 females, 14 weeks old, 3.5 kg weight, Charles River, France), being randomly divided into two groups: • One group receiving ^99mTc-NTP 15-5: 18±3 MBq/animal for biodistribution; • One group receiving ^64Cu-2: 17±4 MBq/animal for biodistribution.
The compounds were i.v. administered to anesthetized animals (ketamine/xylazine by intramuscular route) in the marginal ear vein.
At selected time points after injection (15 min, 1 h, 3 h, 6 h, 20 h after injection), animals (3 animals/time point/compound) were sacrificed by a lethal i.v. dose of pentobarbital. Organs of interest were dissected, weighed and their radioactivity measured using a gamma counter (Model 1480 Wizard, Perkin Elmer Life Sciences, Boston, USA). After radioactive decay correction, results were expressed for each organ as % injected dose per gram (% ID/g) and averaged per group and per time point.

CC[N+](CC)(CC)CCCN1CC[N]2CC[N]3CC[N]4CC[N](CC1)[Tc]234(=[O])=[O].[Br-] [^99mTc-NTP 15-5, reference compound]
Blood [1]: 0.90 ± 0.08 % ID/g
Bone (tibia) [1]: 0.51 ± 0.29 % ID/g
Brain [1]: 0.14 ± 0.02 % ID/g
Kidney [1]: 15.4 ± 12.5 % ID/g
Liver [1]: 2.02 ± 0.38 % ID/g
Lung [1]: 1.71 ± 0.97 % ID/g
Muscle [1]: 0.37 ± 0.24 % ID/g
Spleen [1]: 0.71 ± 0.25 % ID/g
Testis [1]: 1.11 ± 0.47 % ID/g
Tibial plateau [1]: 2.99 ± 1.60 % ID/g
Uptake ratio Cartilage/Bone ([2]; 15 min): 51.5
Uptake ratio Cartilage/Muscle ([2]; 15 min): 103
Articular Cartilage ([2]; 15 min after injection): 1.03 ± 0.4 % ID/g
Bile ([2]; 15 min after injection): 0.09 ± 0.08 % ID/g
Blood ([2]; 15 min after injection): 1.09 ± 0.81 % ID/g
Bone ([2]; 15 min after injection): 0.02 ± 0.01 % ID/g
Bone Marrow ([2]; 15 min after injection): 0.02 ± 0.02 % ID/g
Kidney ([2]; 15 min after injection): 0.19 ± 0.03 % ID/g
Liver ([2]; 15 min after injection): 0.05 ± 0.02 % ID/g
Lung ([2]; 15 min after injection): 0.04 ± 0.04 % ID/g
Muscle ([2]; 15 min after injection): 0.01 ± 0.00 % ID/g
Spleen ([2]; 15 min after injection): 0.03 ± 0.06 % ID/g
Thyroid ([2]; 15 min after injection): 0.05 ± 0.04 % ID/g
Urine ([2]; 15 min after injection): 1.40 ± 1.02 % ID/g
Uptake ratio Cartilage/Bone ([2]; 1 h): 46
Articular Cartilage ([2]; 1 h after injection): 0.92 ± 0.4 % ID/g
Bile ([2]; 1 h after injection): 0.09 ± 0.07 % ID/g
Blood ([2]; 1 h after injection): 0.75 ± 0.09 % ID/g
Bone ([2]; 1 h after injection): 0.02 ± 0.00 % ID/g
Bone Marrow ([2]; 1 h after injection): 0.01 ± 0.00 % ID/g
Kidney ([2]; 1 h after injection): 0.10 ± 0.06 % ID/g
Liver ([2]; 1 h after injection): 0.06 ± 0.03 % ID/g
Lung ([2]; 1 h after injection): 0.02 ± 0.00 % ID/g
Muscle ([2]; 1 h after injection): 0.00 ± 0.00 % ID/g
Spleen ([2]; 1 h after injection): 0.02 ± 0.01 % ID/g
Thyroid ([2]; 1 h after injection): 0.06 ± 0.03 % ID/g
Urine ([2]; 1 h after injection): 4.08 ± 5.75 % ID/g
Articular Cartilage ([2]; 3 h after injection): 0.35 ± 0.15 % ID/g
Bile ([2]; 3 h after injection): 0.18 ± 0.24 % ID/g
Blood ([2]; 3 h after injection): 0.17 ± 0.81 % ID/g
Bone ([2]; 3 h after injection): 0.00 ± 0.00 % ID/g
Bone Marrow ([2]; 3 h after injection): 0.00 ± 0.00 % ID/g
Kidney ([2]; 3 h after injection): 0.09 ± 0.03 % ID/g
Liver ([2]; 3 h after injection): 0.08 ± 0.02 % ID/g
Lung ([2]; 3 h after injection): 0.01 ± 0.00 % ID/g
Muscle ([2]; 3 h after injection): 0.00 ± 0.00 % ID/g
Spleen ([2]; 3 h after injection): 0.00 ± 0.00 % ID/g
Thyroid ([2]; 3 h after injection): 0.11 ± 0.01 % ID/g
Urine ([2]; 3 h after injection): 1.34 ± 0.52 % ID/g
Articular Cartilage ([2]; 6 h after injection): 0.09 ± 0.03 % ID/g
Bile ([2]; 6 h after injection): 0.08 ± 0.02 % ID/g
Blood ([2]; 6 h after injection): 0.03 ± 0.00 % ID/g
Bone ([2]; 6 h after injection): 0.00 ± 0.00 % ID/g
Bone Marrow ([2]; 6 h after injection): 0.00 ± 0.00 % ID/g
Kidney ([2]; 6 h after injection): 0.06 ± 0.01 % ID/g
Liver ([2]; 6 h after injection): 0.06 ± 0.01 % ID/g
Lung ([2]; 6 h after injection): 0.00 ± 0.00 % ID/g
Muscle ([2]; 6 h after injection): 0.00 ± 0.00 % ID/g
Spleen ([2]; 6 h after injection): 0.00 ± 0.00 % ID/g
Thyroid ([2]; 6 h after injection): 0.02 ± 0.03 % ID/g
Urine ([2]; 6 h after injection): 1.61 ± 0.6 % ID/g
Articular Cartilage ([2]; 20 h after injection): 0.04 ± 0.01 % ID/g
Bile ([2]; 20 h after injection): 0.03 ± 0.01 % ID/g
Blood ([2]; 20 h after injection): 0.00 ± 0.00 % ID/g
Bone ([2]; 20 h after injection): 0.00 ± 0.00 % ID/g
Bone Marrow ([2]; 20 h after injection): 0.00 ± 0.00 % ID/g
Kidney ([2]; 20 h after injection): 0.07 ± 0.00 % ID/g
Liver ([2]; 20 h after injection): 0.03 ± 0.02 % ID/g
Lung ([2]; 20 h after injection): 0.00 ± 0.00 % ID/g
Muscle ([2]; 20 h after injection): 0.00 ± 0.00 % ID/g
Spleen ([2]; 20 h after injection): 0.01 ± 0.00 % ID/g
Thyroid ([2]; 20 h after injection): 0.00 ± 0.00 % ID/g
Urine ([2]; 20 h after injection): 0.40 ± 0.01 % ID/g
